Data: US20010044445A1, “AZOLE INHIBITORS OF CYTOKINE PRODUCTION” (priority 1999, published 2001)

How the values were obtained:
[1] = system: Human peripheral blood mononuclear cells; test: Human Concanavalin-A Proliferation Assay (Con HU Assay); format: cell-based; conditions: concanavalin-A stimulated human PBMC; for inhibition at 10 µM / IC50 / inhibition at 1 µM / inhibition at 100 µM: Homo sapiens, PBMC; for inhibition at 10 µM / inhibition at 1 µM / inhibition at 100 µM: 72 h, read-out: % Inhibition of proliferation (at concentrations of 1,10, or 100 μm); for inhibition at 10 µM: concentration 10 μm (in parentheses in the cell); for IC50: tritiated thymidine; for inhibition at 100 µM: concentration 100 μm (in parentheses in the cell)
Procedure, shortened: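 Histopaque-isolated human PBMC (50,000/well) were pre-incubated 15 min with compounds, then stimulated with concanavalin-A at 2.5 μg/ml final for 3 days at 37 °C, 5% CO2. Proliferation measured by 6 h pulse with 0.5 μCi/well [3H]thymidine and beta counting.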

[2] = concentration 1 μm (in parentheses in the cell), 3 days

| Structure (SMILES) | melting point [°C] | inhibition at 10 µM ([1]; 3 days) [%] | IC50 [1] [nM] | inhibition at 1 µM [1, 2] [%] | inhibition at 100 µM ([1]; 3 days) [%] | % Inhibition of proliferation (at concentrations of 1,10, or 100 μm) [1, 2] |
| --- | --- | --- | --- | --- | --- | --- |
| O=C(Nc1ccc(-n2nc(C(F)(F)F)cc2C(F)(F)F)cc1)c1c(F)cc(Cl)cc1Cl [Example 232, N-[4-[3,5-bis(trifluoromethyl)-1H-pyrazol-1-yl]phenyl]-2,4-dichloro-6-fluorobenzamide] | 185 to 188 | 99 | 172 | – | – | – |
| CC(C)(C)OC(=O)N1CCCC1C(=O)Nc1ccc(-n2nc(C(F)(F)F)cc2C(F)(F)F)cc1 (stereo not drawn) [Example 246, 1,1-Dimethylethyl 2-[[[4-[3,5-bis(trifluoromethyl)-1H-pyrazol-1-yl]phenyl]amino]carbonyl]-1-pyrrolidinecarboxylate] | 70 to 72 | – | – | 47 | – | – |
| O=C(Nc1ccc(-n2nc(C(F)(F)F)cc2OC(F)F)cc1)c1ccncc1F [Example 327, N-(4-(5-(difluoromethoxy)-3-(trifluoromethyl)-1H-pyrazol-1-yl)phenyl)-3-fluoroisonicotinamide] | 135 to 136 | – | 82 | – | – | – |
| CCCCCCC(=O)Nc1ccc(-n2nc(C(F)(F)F)cc2C(F)(F)F)cc1 [Example 56, N-[4-[3,5-bis(trifluoromethyl)-1H-pyrazol-1-yl]phenyl]heptanamide] | 88 to 90 | – | – | 32 | – | – |
| CC1(C(=O)Nc2ccc(-n3nc(C(F)(F)F)cc3C(F)(F)F)cc2)CC1 [Example 35, N-[4-[3,5-bis(trifluoromethyl)-1H-pyrazol-1-yl]phenyl]-1-methylcyclopropanecarboxamide] | 109 to 110 | – | – | 65 | – | – |
| O=C(Nc1ccc(-n2nc(C(F)(F)F)cc2Br)cc1)c1ccncc1Cl [Example 349, N-(4-(5-bromo-3-(trifluoromethyl)-1H-pyrazol-1-yl)phenyl)-3-chloroisonicotinamide] | 79 to 82 | – | 224 | – | – | – |
| Cc1nnsc1C(=O)Nc1ccc(-n2nc(C(F)(F)F)cc2OC(F)F)cc1 [Example 323, N-(4-(5-(difluoromethoxy)-3-(trifluoromethyl)-1H-pyrazol-1-yl)phenyl)-4-methyl-1,2,3-thiadiazole-5-carboxamide] | 122 to 123 | – | 238 | – | – | – |
| O=C(Nc1ccc(-n2nc(C(F)(F)F)cc2C(F)(F)F)cc1)c1ccccc1C(F)(F)F [Example 127, N-[4-[3,5-bis(trifluoromethyl)-1H-pyrazol-1-yl]phenyl]-2-(trifluoromethyl)benzamide] | 133 to 135 | – | 487 | – | 100 | – |
| O=C(Nc1cccc(-n2nc(C(F)(F)F)cc2C(F)(F)F)c1)c1ccc(F)cc1F [Example 203, N-[3-[3,5-bis(trifluoromethyl)-1H-pyrazol-1-yl]phenyl]-2,4-difluorobenzamide] | 133 to 134 | – | – | 1 | – | – |
| O=C(Nc1ccc(-n2nc(C(F)(F)F)cc2C(F)(F)F)cc1)c1cc(F)c(F)c(F)c1 [Example 227, N-[4-[3,5-bis(trifluoromethyl)-1H-pyrazol-1-yl]phenyl]-3,4,5-trifluorobenzamide] | 158 to 159 | 100 | 257 | – | – | – |
| CC(C(=O)Nc1ccc(-n2nc(C(F)(F)F)cc2C(F)(F)F)cc1)c1ccc(C(=O)c2cccs2)cc1 (stereo not drawn) [Example 178, N-[4-[3,5-bis(trifluoromethyl)-1H-pyrazol-1-yl]phenyl]-α-methyl-4-(2-thienylcarbonyl)benzeneacetamide] | < 100 | – | – | – | – | 14(1) % |
| COc1ccc(C(=O)Nc2ccc(-n3nc(C(F)(F)F)cc3C(F)(F)F)cc2)c(Cl)c1 [Example 215, N-[4-[3,5-bis(trifluoromethyl)-1H-pyrazol-1-yl]phenyl]-2-chloro-4-methoxybenzamide] | 140 to 143 | 100 | 126 | – | – | – |
| CCCCCc1ccc(C(=O)Nc2ccc(-n3nc(C(F)(F)F)cc3C(F)(F)F)cc2)c(=O)o1 [Example 4, N-[4-[3,5-bis(trifluoromethyl)-1H-pyrazol-1-yl]phenyl]-2-oxo-6-pentyl-2H-pyran-3-carboxamide] | 140 to 141 | – | 28800 | – | 82 | – |
| O=C(Nc1ccc(-n2nc(C(F)(F)F)cc2-c2cccnc2)cc1)c1ccccc1F [Example 310, 2-fluoro-N-(4-(5-(3-pyridinyl)-3-(trifluoromethyl)-1H-pyrazol-1-yl)phenyl)benzamide] | 138 to 140 | – | 335 | – | – | – |
| COc1cc(C(F)(F)F)nn1-c1ccc(NC(=O)c2cccnc2F)cc1 [Example 317, 2-fluoro-N-(4-(5-methoxy-3-(trifluoromethyl)-1H-pyrazol-1-yl)phenyl)nicotinamide] | 153 to 154 | – | 186 | – | – | – |
| Cc1ccc(NC(=O)Nc2ccc(-n3nc(C(F)(F)F)cc3C(F)(F)F)cc2)c([N+](=O)[O-])c1 [Example 43, N-[4-[3,5-bis(trifluoromethyl)-1H-pyrazol-1-yl]phenyl]-N′-(4-methyl-2-nitrophenyl)urea] | 213 to 214 | 98 | 354 | – | – | – |
| O=C(Nc1ccc(-n2nc(C(F)(F)F)cc2OC(F)F)cc1)c1cccc(F)c1F [Example 354, N-(4-(5-(difluoromethoxy)-3-(trifluoromethyl)-1H-pyrazol-1-yl)phenyl)-2,3-difluorobenzamide] | 154 to 155 | – | 75 | – | – | – |

More lines, main results first:

| melting point [°C] | Structure (SMILES) | inhibition at 10 µM ([1]; 3 days) [%] | IC50 [1] [nM] | inhibition at 1 µM [1, 2] [%] | inhibition at 100 µM ([1]; 3 days) [%] | % Inhibition of proliferation (at concentrations of 1,10, or 100 μm) [1, 2] |
| --- | --- | --- | --- | --- | --- | --- |
| 239 to 240 | O=C(Nc1ccc(-n2nc(C(F)(F)F)cc2C(F)(F)F)cc1)c1ccsc1 [Example 239, N-[4-[3,5-bis(trifluoromethyl)-1H-pyrazol-1-yl]phenyl]-3-thiophenecarboxamide] | 55 | – | – | – | – |
| 206 to 207 | O=C(Nc1ccc(-n2nc(C(F)(F)F)cc2C(F)(F)F)cc1)c1ccoc1 [Example 14, N-[4-[3,5-bis(trifluoromethyl)-1H-pyrazol-1-yl]phenyl]-3-furancarboxamide] | – | 538 | – | 97 | – |
| 244 to 245 | NC(=O)c1cccc(C(=O)Nc2ccc(-n3nc(C(F)(F)F)cc3C(F)(F)F)cc2)c1 [Example 138, N-[4-[3,5-bis(trifluoromethyl)-1H-pyrazol-1-yl]phenyl]-1,3-benzenedicarboxamide] | 99 | 364 | – | – | – |
| 221 to 223 | O=C(Nc1ccc(-n2nc(C(F)(F)F)cc2C(F)(F)F)cc1)c1cccc(O)c1 [Example 104, N-[4-[3,5-bis(trifluoromethyl)-1H-pyrazol-1-yl]phenyl]-3-hydroxybenzamide] | – | 394 | – | 99 | – |
| 195 to 196 | COC(=O)c1ccc(C(=O)Nc2ccc(-n3nc(C(F)(F)F)cc3C(F)(F)F)cc2)cc1 [Example 142, methyl 4-[[[4-[3,5-bis(trifluoromethyl)-1H-pyrazol-1-yl]phenyl]amino]carbonyl]benzoate] | 99 | 489 | – | – | – |
| 133 to 134 | N#Cc1ccc(C(=O)Nc2cccc(-n3nc(C(F)(F)F)cc3C(F)(F)F)c2)cc1 [Example 238, N-[3-[3,5-bis(trifluoromethyl)-1H-pyrazol-1-yl]phenyl]-4-cyanobenzamide] | – | – | 3 | – | – |
| 137 to 139 | Cc1cccc(C(=O)Nc2ccc(-n3nc(C(F)(F)F)cc3C(F)(F)F)cc2)c1 [Example 75, N-[4-[3,5-bis(trifluoromethyl)-1H-pyrazol-1-yl]phenyl]-3-methylbenzamide] | – | 368 | – | 100 | – |
| 127 to 128 | O=C(Nc1ccc(-n2nc(C(F)(F)F)cc2C(F)(F)F)cc1)c1c(F)cccc1F [Example 160, N-[4-[3,5-bis(trifluoromethyl)-1H-pyrazol-1-yl]phenyl]-2,6-difluorobenzamide] | – | – | 1 | – | – |
| 194 to 195 | Cc1c(C(=O)Nc2ccc(-n3nc(C(F)(F)F)cc3C(F)(F)F)cc2)cccc1[N+](=O)[O-] [Example 15, N-[4-[3,5-bis(trifluoromethyl)-1H-pyrazol-1-yl]phenyl]-2-methyl-3-nitrobenzamide] | – | 274 | – | 99 | – |
| 182 to 184 | O=C(Nc1ccc(-n2nc(C(F)(F)F)cc2C(F)(F)F)cc1)c1ccc(Cl)s1 [Example 253, N-[4-[3,5-bis(trifluoromethyl)-1H-pyrazol-1-yl]phenyl]-5-chloro-2-thiophenecarboxamide] | 94 | 447 | – | – | – |
| 155 to 157 | O=C(Nc1ccc(-n2nc(C(F)(F)F)cc2C(F)(F)F)cc1)c1ccc(F)cc1Cl [Example 206, N-[4-[3,5-bis(trifluoromethyl)-1H-pyrazol-1-yl]phenyl]-2-chloro-4-fluorobenzamide] | 100 | 61 | – | – | – |
| 162 to 163 | N#Cc1cccc(C(=O)Nc2ccc(-n3nc(C(F)(F)F)cc3C(F)(F)F)cc2)c1 [Example 137, N-[4-[3,5-bis(trifluoromethyl)-1H-pyrazol-1-yl]phenyl]-3-cyanobenzamide] | – | 120 | – | 98 | – |
| 200 to 202 | Cc1ccc(C(=O)Nc2ccc(-n3nc(C(F)(F)F)cc3C(F)(F)F)cc2)s1 [Example 44, N-[4-[3,5-bis(trifluoromethyl)-1H-pyrazol-1-yl]phenyl]-5-methyl-2-thiophenecarboxamide] | – | – | 29 | – | – |
